Test results reported in article PMC11097168, “Laburnicotides A–F: Acyclic N-Acetyl Oligopeptides from the Nematode-Cyst-Associated Fungus Laburnicola nematophila” (ACS Omega, 2024).
Converted amounts (≈) assume the structure as drawn. Read-outs that look alike come from different tables or passages of the source.

Columns and labels:
[1] = tested on: Acinetobacter baumanii; test: Antimicrobial activity (MIC), serial dilution; type: cell-based
Method: (§1) The evaluation of antimicrobial efficacy was conducted through a serial dilution method to determine the minimum inhibitory concentrations (MICs) of isolated compounds against various Gram-positive bacteria (Bacillus subtilis (B. subtilis), Mycobacterium smegmatis (M. smegmatis), and Staphylococcus aureus), Gram-negative bacteria (Acinetobacter baumannii (A. baumannii), Chromobacterium violaceum, Escherichia coli, and Pseudomonas aeruginosa (P. aeruginosa)), and five fungal species (Candida albicans, Mucor hiemalis, Rhodotorula glutinis, Schizosaccharomyces pombe, and Wickerhamomyces anomalus), utilizing established methodologies.[16],[20],[23],[24] Methanol served as the negative control with a volume of 20 μL, while the choice of positive controls was tailored to the specific organism under investigation. For bacterial strains, oxytetracycline, ciprofloxacin, kanamycin, and gentamicin were employed as references for B. subtilis, A. baumannii, M. smegmatis, and P. aeruginosa, respectively; nystatin was the standard for all fungi. The cytotoxicity of compounds was assessed on L929 mouse fibroblast cells and KB3.1 human endocervical adenocarcinoma cells using an MTT assay. Epothilone B acted as the positive control in these experiments. Additionally, the nematicidal potential was evaluated using Caenorhabditis elegans in a 48-well flat-bottom plate, with compounds tested at concentrations of 100, 50, and 10 μg mL^–1. Samples were dissolved in methanol and added to the wells and then dried using a nitrogen stream. Subsequently, 300 μL of a suspension containing 1,000 nematodes/mL was added to the samples and incubated for 18 h at 23 °C and 150 rpm. Ivermectin, at a concentration of 1 μg mL^–1, served as the positive control, and methanol was used as the negative control. This assay was executed according to the procedures outlined by Phutthacharoen et al.[23]

[2] = tested on: Escherichia coli; test: Antimicrobial activity (MIC), serial dilution; type: cell-based
Method: as §1, with “The biological activity of isolated compounds (1, 2, 4, and 5) was assessed against different fungi, bacteria, cell lines, Caenorhabditis elegans, and Chikungunya virus. The evaluation” for “The evaluation”

[3] = tested on: Staphylococcus aureus; test: Antimicrobial activity (MIC), serial dilution; type: cell-based
Method: as §1, with “The biological activity of isolated compounds (1, 2, 4, and 5) was assessed against different fungi, bacteria, cell lines, Caenorhabditis elegans, and Chikungunya virus. The evaluation” for “The evaluation”

[4] = tested on: Chromobacterium violaceum; test: Antimicrobial activity (MIC), serial dilution; type: cell-based
Method: as §1, with “The biological activity of isolated compounds (1, 2, 4, and 5) was assessed against different fungi, bacteria, cell lines, Caenorhabditis elegans, and Chikungunya virus. The evaluation” for “The evaluation”

[5] = tested on: Pseudomonas aeruginosa; test: Antimicrobial activity (MIC), serial dilution; type: cell-based
Method: as §1, with “The biological activity of isolated compounds (1, 2, 4, and 5) was assessed against different fungi, bacteria, cell lines, Caenorhabditis elegans, and Chikungunya virus. The evaluation” for “The evaluation”

[6] = tested on: Bacillus subtilis; test: Antimicrobial activity (MIC), serial dilution; type: cell-based
Method: as §1

[7] = tested on: Caenorhabditis elegans; test: Nematicidal activity; type: in vivo; conditions: 23 °C, 150 rpm
Method: as §1

[8] = tested on: KB3.1 human endocervical adenocarcinoma cells; test: Cytotoxicity, MTT assay; type: cell-based; set-up: key: -: No effect on cell lines; conditions: Human endocervical adenocarcinoma (KB3.1)
Method: as §1

[9] = tested on: L929 mouse fibroblast cells; test: Cytotoxicity, MTT assay; type: cell-based; set-up: key: -: No effect on cell lines
Method: as §1

[10] = tested on: Mucor hiemails; test: Antimicrobial activity (MIC), serial dilution; type: cell-based
Method: as §1, with “The biological activity of isolated compounds (1, 2, 4, and 5) was assessed against different fungi, bacteria, cell lines, Caenorhabditis elegans, and Chikungunya virus. The evaluation” for “The evaluation”

[11] = tested on: Schizosaccharomyces pombe; test: Antimicrobial activity (MIC), serial dilution; type: cell-based
Method: as §1, with “The biological activity of isolated compounds (1, 2, 4, and 5) was assessed against different fungi, bacteria, cell lines, Caenorhabditis elegans, and Chikungunya virus. The evaluation” for “The evaluation”

[12] = tested on: Mycobacterium smegmatis; test: Antimicrobial activity (MIC), serial dilution; type: cell-based
Method: as §1, with “The biological activity of isolated compounds (1, 2, 4, and 5) was assessed against different fungi, bacteria, cell lines, Caenorhabditis elegans, and Chikungunya virus. The evaluation” for “The evaluation”

[13] = tested on: Rhodotorula glutinis; test: Antimicrobial activity (MIC), serial dilution; type: cell-based
Method: as §1, with “The biological activity of isolated compounds (1, 2, 4, and 5) was assessed against different fungi, bacteria, cell lines, Caenorhabditis elegans, and Chikungunya virus. The evaluation” for “The evaluation”

[14] = tested on: Pichia anomala; test: Antimicrobial activity (MIC), serial dilution; type: cell-based
Method: as §1, with “The biological activity of isolated compounds (1, 2, 4, and 5) was assessed against different fungi, bacteria, cell lines, Caenorhabditis elegans, and Chikungunya virus. The evaluation” for “The evaluation”

[15] = tested on: Candida albicans; test: Antimicrobial activity (MIC), serial dilution; type: cell-based
Method: as §1, with “The biological activity of isolated compounds (1, 2, 4, and 5) was assessed against different fungi, bacteria, cell lines, Caenorhabditis elegans, and Chikungunya virus. The evaluation” for “The evaluation”

[16] = read-out: MIC, positive control
[17] = C. elegans N2, 10 µg mL-1, 18 h, < 0: less active than the corresponding negative control
[18] = C. elegans N2, 50 µg mL-1, 18 h, < 0: less active than the corresponding negative control
[19] = C. elegans N2, 100 µg mL-1, 18 h, < 0: less active than the corresponding negative control

For `O=C(O)c1cn(C2CC2)c2cc(N3CCNCC3)c(F)cc2c1=O` [Ciprofloxacin, reference compound], which MIC ([1]; Acinetobacter baumannii, read-out: MIC, positive control) is on record?
The MIC was 0.52 mg/L (≈ 1.57 µM).

What does the source list for `CNC(C)C1CCC(N)C(OC2C(N)CC(N)C(OC3OCC(C)(O)C(NC)C3O)C2O)O1` (stereo not drawn) [Gentamycin, reference compound]?
MIC [2, 16]: 0.42 mg/L (≈ 0.879 µM); MIC [3, 16]: 0.21 mg/L (≈ 0.44 µM); MIC [4, 16]: 1.7 mg/L (≈ 3.56 µM); MIC [5, 16]: 0.21 mg/L (≈ 0.44 µM)

With `CN(C)[C@@H]1C(O)=C(C(N)=O)C(=O)[C@@]2(O)C(O)=C3C(=O)c4c(O)cccc4[C@@](C)(O)[C@H]3[C@H](O)[C@@H]12` [Oxytetracycline, reference compound] as the compound, how does the MIC [6, 16] read?
The MIC was 16.6 mg/L (≈ 36.1 µM).

How did the MIC [6] turn out when “Ac-D-Trp-D-Ala^1-D-Ala^2-L-Phe [Compound 4]” was run?
Its MIC is “- (No inhibition up to 67 µg/mL)”.

And the MIC [1]?
Its MIC is “- (No inhibition up to 67 µg/mL)”.

What about the “Corrected Mortality (%)” value [7, 17] of the same compound?
Its value is 0.7 ± 2.0%.

What about the “Corrected Mortality (%)” value [7, 18] of the same compound?
The value was 0.1 ± 2.2%.

What about the “Corrected Mortality (%)” value [7, 19] of the same compound?
Its value is under 0%.

And the “Cytotoxicity IC50” value [8]?
Its value is “-”.

And the “Cytotoxicity IC50” value [9]?
The value was “-”.

What about the MIC [10] of the same compound?
Its MIC is “- (No inhibition up to 67 µg/mL)”.

What about the MIC [2] of the same compound?
Its MIC is “- (No inhibition up to 67 µg/mL)”.

And the MIC [3]?
Its MIC is “- (No inhibition up to 67 µg/mL)”.

What about the MIC [11] of the same compound?
Its MIC is “- (No inhibition up to 67 µg/mL)”.

And the MIC [12]?
The MIC was “- (No inhibition up to 67 µg/mL)”.

What about the MIC [4] of the same compound?
Its MIC is “- (No inhibition up to 67 µg/mL)”.

And the MIC [13]?
Its MIC is “- (No inhibition up to 67 µg/mL)”.

What about the MIC [14] of the same compound?
Its MIC is “- (No inhibition up to 67 µg/mL)”.

And the MIC [5]?
Its MIC is “- (No inhibition up to 67 µg/mL)”.

And the MIC [15]?
Its MIC is “- (No inhibition up to 67 µg/mL)”.

Which MIC [6] does the source give for Ac-D-Trp-D-Leu-D-Ala [Compound 5] here?
The MIC was “- (No inhibition up to 67 µg/mL)”.

And the MIC [1]?
Its MIC is “- (No inhibition up to 67 µg/mL)”.

What about the “Corrected Mortality (%)” value [7, 17] of the same compound?
Its value is under 0%.

And the “Corrected Mortality (%)” value [7, 18]?
The value was 0.5 ± 1.1%.

And the “Corrected Mortality (%)” value [7, 19]?
Its value is under 0%.

And the “Cytotoxicity IC50” value [8]?
Its value is “-”.

And the “Cytotoxicity IC50” value [9]?
Its value is “-”.

And the MIC [10]?
The MIC was “- (No inhibition up to 67 µg/mL)”.

What about the MIC [2] of the same compound?
The MIC was “- (No inhibition up to 67 µg/mL)”.

What about the MIC [3] of the same compound?
The MIC was “- (No inhibition up to 67 µg/mL)”.

What about the MIC [11] of the same compound?
The MIC was “- (No inhibition up to 67 µg/mL)”.

What about the MIC [12] of the same compound?
The MIC was “- (No inhibition up to 67 µg/mL)”.

What about the MIC [4] of the same compound?
The MIC was “- (No inhibition up to 67 µg/mL)”.

What about the MIC [13] of the same compound?
The MIC was “- (No inhibition up to 67 µg/mL)”.

And the MIC [14]?
The MIC was “- (No inhibition up to 67 µg/mL)”.

And the MIC [5]?
The MIC was “- (No inhibition up to 67 µg/mL)”.

And the MIC [15]?
The MIC was “- (No inhibition up to 67 µg/mL)”.

Ac-D-Trp-D-Leu-D-Ala-L-Phe [Compound 2] was tested. Which MIC [6] did it give?
The MIC was “- (No inhibition up to 67 µg/mL)”.

What about the MIC [1] of the same compound?
Its MIC is “- (No inhibition up to 67 µg/mL)”.

And the “Corrected Mortality (%)” value [7, 17]?
The value was under 0%.

What about the “Corrected Mortality (%)” value [7, 18] of the same compound?
The value was under 0%.

And the “Corrected Mortality (%)” value [7, 19]?
The value was under 0%.

And the “Cytotoxicity IC50” value [8]?
The value was “-”.

What about the “Cytotoxicity IC50” value [9] of the same compound?
Its value is “-”.

What about the MIC [10] of the same compound?
Its MIC is “- (No inhibition up to 67 µg/mL)”.

What about the MIC [2] of the same compound?
The MIC was “- (No inhibition up to 67 µg/mL)”.

And the MIC [3]?
Its MIC is “- (No inhibition up to 67 µg/mL)”.

What about the MIC [11] of the same compound?
Its MIC is “- (No inhibition up to 67 µg/mL)”.

And the MIC [12]?
The MIC was “- (No inhibition up to 67 µg/mL)”.

And the MIC [4]?
Its MIC is “- (No inhibition up to 67 µg/mL)”.

And the MIC [13]?
Its MIC is “- (No inhibition up to 67 µg/mL)”.

What about the MIC [14] of the same compound?
The MIC was “- (No inhibition up to 67 µg/mL)”.

And the MIC [5]?
Its MIC is “- (No inhibition up to 67 µg/mL)”.

What about the MIC [15] of the same compound?
Its MIC is “- (No inhibition up to 67 µg/mL)”.

“Ac-D-Trp-D-Leu^1-D-Leu^2-L-Phe [Compound 1]” was tested. Which MIC [6] did it give?
The MIC was “- (No inhibition up to 67 µg/mL)”.

And the MIC [1]?
Its MIC is “- (No inhibition up to 67 µg/mL)”.

And the “Corrected Mortality (%)” value [7, 17]?
The value was under 0%.

And the “Corrected Mortality (%)” value [7, 18]?
Its value is under 0%.

What about the “Corrected Mortality (%)” value [7, 19] of the same compound?
Its value is under 0%.

What about the “Cytotoxicity IC50” value [8] of the same compound?
The value was “-”.

And the “Cytotoxicity IC50” value [9]?
Its value is “-”.

And the MIC [10]?
The MIC was “- (No inhibition up to 67 µg/mL)”.

What about the MIC [2] of the same compound?
The MIC was “- (No inhibition up to 67 µg/mL)”.

What about the MIC [3] of the same compound?
The MIC was “- (No inhibition up to 67 µg/mL)”.

What about the MIC [11] of the same compound?
Its MIC is “- (No inhibition up to 67 µg/mL)”.

And the MIC [12]?
Its MIC is “- (No inhibition up to 67 µg/mL)”.

What about the MIC [4] of the same compound?
The MIC was “- (No inhibition up to 67 µg/mL)”.

And the MIC [13]?
The MIC was “- (No inhibition up to 67 µg/mL)”.

And the MIC [14]?
The MIC was “- (No inhibition up to 67 µg/mL)”.

And the MIC [5]?
The MIC was “- (No inhibition up to 67 µg/mL)”.

What about the MIC [15] of the same compound?
The MIC was “- (No inhibition up to 67 µg/mL)”.

For Ivermectin [reference compound], which “Corrected Mortality (%)” value ([7]; C. elegans N2, 1 µg mL-1, 18 h) is on record?
Its value is 96.2 ± 2.7%.
